How the values were obtained:
Format in all cases: cell-based
[1] = tested on: human breast cancer cells (MCF-7); assay: Growth inhibition of human breast cancer cells (MCF-7)
From the text: The results shown the extent of inhibition of cell growth compared to controls expressed in percent inhibition.

[2] = tested on: normal human mammary cells (NHMC); assay: Growth inhibition of normal human mammary cells (NHMC) grown in RPMI-10; settings: for Percent Growth Inhibition in NHMC Cells Grown in RPMI-10: RPMI-1640 with 10% fetal calf serum
From the text: (§1) The results shown the extent of inhibition of cell growth compared to controls expressed in percent inhibition. The results are shown as follows:
RPMI-10 refers to standard RPMI-1640 medium with 10% fetal calf serum added.

[3] = tested on: normal human mammary cells (NHMC); assay: Growth inhibition of normal human mammary cells (NHMC) grown at low calcium concentration (40 μM); settings: calcium 40 μM
Method: as §1
Table 3 Percent Growth Inhibition in NHMC Cells Grown at Low Calcium Concentration (40 μM).

N.N.[Cl][Pt][Cl] [cisplatin, cis-diamminedichloroplatinum]
Percent Growth Inhibition in MCF-7 Cells ([1]; 5 μL): 25% | Percent Growth Inhibition in MCF-7 Cells ([1]; 10 μL): 49% | Percent Growth Inhibition in MCF-7 Cells ([1]; 25 μL): 92% | inhibitions on MCF-7, comparison of cisplatin and #801C ([1]; in words): essentially the same | Percent Growth Inhibition in NHMC Cells Grown in RPMI-10 ([2]; 1/100): 88% | Percent Growth Inhibition in NHMC Cells Grown in RPMI-10 ([2]; 1/200): 46% | Percent Growth Inhibition in NHMC Cells Grown in RPMI-10 ([2]; 1/400): 0% | inhibitions on NHMC, comparison of cisplatin and #801C ([2]; in words, RPMI-10): not significantly different | Percent Growth Inhibition in NHMC Cells Grown at Low Calcium Concentration (40 μM) ([3]; 1/100): 32% | Percent Growth Inhibition in NHMC Cells Grown at Low Calcium Concentration (40 μM) ([3]; 1/200): 31% | Percent Growth Inhibition in NHMC Cells Grown at Low Calcium Concentration (40 μM) ([3]; 1/400): 27%
